Usually melting point stands for the temperature, or range, at which the solid turns liquid. Turning to `CCCC(=O)Nc1n[nH]c2c(F)c(F)c(Br)cc12`, the melting point came out at 220 °C.
On to `CN1CCN(CC(=O)Nc2n[nH]c3cc(Cl)ccc23)CC1`, for which the melting point came to 165 °C.
On to `CCCC(=O)Nc1n[nH]c2ccc(C(F)(F)F)cc12` [Example 22, N-[5-(trifluoromethyl)-1H-indazol-3-yl]butanamide], for which the melting point was 230 °C.
For `O=C(Nc1n[nH]c2ccc(NS(=O)(=O)c3cccc(F)c3)cc12)c1ccccc1` [Example 38, N-[5-[[(3-fluorophenyl)sulphonyl]amino]-1H-indazol-3-yl]benzamide], the melting point is 225 °C.
For the compound `CCCC(=O)Nc1n[nH]c2cc(Br)c(Br)cc12` [Example 70, N-[5,6-dibromo-1H-indazol-3-yl]butanamide], the melting point is 250 °C.
`O=C(CN1CCCCC1)Nc1n[nH]c2cc(Cl)ccc12` [Example 76, N-(6-chloro-1H-indazol-3-yl)-1-piperidineacetamide] came in with a melting point of 153 °C.
The compound `O=C(CNC1CCCCC1)Nc1n[nH]c2cc(Cl)ccc12` [Example 79, N-(6-chloro-1H-indazol-3-yl)-2-(cyclohexylamino)acetamide] displayed a melting point of 170 °C.
As to `O=C(CNCc1ccccc1)Nc1n[nH]c2cc(Cl)ccc12` [Example 80, 2-[(phenylmethyl)amino]-N-(6-chloro-1H-indazol-3-yl)acetamide], the melting point was 156 °C.
`O=C(CN1CCCC1)Nc1n[nH]c2cc(Cl)ccc12` [Example 85, N-(6-chloro-1H-indazol-3-yl)-1-pyrrolidineacetamide]: the melting point came to 168 °C.
In the case of `CN(C)CCNCC(=O)Nc1n[nH]c2cc(Cl)ccc12` [Example 86, N-(6-chloro-1H-indazol-3-yl)-2-[[2-(dimethylamino)ethyl]amino]acetamide], the melting point turned out to be 104 °C.
The compound `CCCC(=O)Nc1n[nH]c2c(F)c(F)c([N+](=O)[O-])cc12` [Example 106, N-(6,7-difluoro-5-nitro-1H-indazol-3-yl)butanamide] registered a melting point of 255 °C.
`CCCC(=O)Nc1n[nH]c2c(F)c(N3CCOCC3)c([N+](=O)[O-])cc12` [Example 112, N-(7-fluoro-5-nitro-6-morpholino-1H-indazol-3-yl)butanamide]: the melting point was 250 °C.
In the case of `CCCC(=O)Nc1n[nH]c2c(F)c(N3CCOCC3)c(N)cc12` [Example 113, N-(7-fluoro-5-amino-6-morpholino-1H-indazol-3-yl)butanamide] it was 180 °C; in that of `O=C(CN1CCCCC1)Nc1n[nH]c2c(F)c(F)ccc12` [Example 118, N-(6,7-difluoro-1H-indazol-3-yl)-1-piperidineacetamide], 158 °C.

(Values after patent publication US6949579B2, “Aminoindazole derivatives and intermediates, preparation thereof, and pharmaceutical compositions thereof” (Aventis Pharma S.A., priority 2002, dated 2005).)
